From patent publication US10294202B2, “Pyrrolidinones as herbicides” (FMC Corporation, priority 2013, dated 2019)
Like-named read-outs stand apart in the source and are kept apart here.

Tests used:
crabgrass, large = experiment: Test A pre-/postemergence herbicide test; assay type: in vivo, Digitaria sanguinalis; details: for Crabgrass, Large plant response rating: Preemergence, visual rating on 0 to 100 scale (0 no effect, 100 complete control)
In short: (§1)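 Planted in loam–sand blend; treated the same day preemergence by directed soil spray, while separately grown plants at one- to two-leaf stage got postemergence spray. Compared visually with untreated controls after approximately 10 days; 100 means complete control.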

morningglory = experiment: Test A pre-/postemergence herbicide test; assay type: in vivo, Ipomoea spp.; details: for Morningglory plant response rating: Preemergence, visual rating on 0 to 100 scale (0 no effect, 100 complete control)
In short: as §1

sedge, umbrella = experiment: Test C flooded paddy test; assay type: in vivo, Cyperus difformis; details: Flood
In short: (§2)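 Plants grown to the 2-leaf stage; pots flooded to 3 cm above soil and compound applied directly into the paddy water, depth kept throughout. Greenhouse 13 to 15 days, then visual rating vs untreated controls on 0–100 scale (0 no effect, 100 complete control); dash means no result.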

ducksalad = experiment: Test C flooded paddy test; assay type: in vivo, Heteranthera limosa; details: Flood
In short: as §2

barnyardgrass = experiment: Test C flooded paddy test; assay type: in vivo, Echinochloa crus-galli; details: Flood
In short: as §2

kochia = experiment: Test A pre-/postemergence herbicide test; assay type: in vivo, Kochia scoparia
In short: as §1

blackgrass = experiment: Test A postemergence herbicide test; assay type: in vivo, Alopecurus myosuroides
In short: (§3)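 Potted in loam soil/sand blend; postemergence application at 1–2 leaf stage (2–10 cm). Greenhouse ~10 d. Visual injury vs untreated, 0–100 scale; 100 = complete control.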

galium = experiment: Test A postemergence herbicide test; assay type: in vivo, Galium aparine
In short: as §3

[1] = Postemergence, 125 g ai/ha, 0 to 100 scale, 0 no effect, 100 complete control
[2] = Postemergence, 500 g ai/ha, 0 to 100 scale (0 no effect, 100 complete control)
[3] = preemergence, 500 g ai/ha, 0 to 100 scale
[4] = Postemergence, 125 g ai/ha, 0 to 100 scale, 0 is no effect, 100 is complete control
[5] = Preemergence, 125 g ai/ha, 0 to 100 scale where 0 is no effect and 100 is complete control
[6] = preemergence, 500 g ai/ha, 0 to 100 scale, 0 is no effect and 100 is complete control
[7] = 125 g ai/ha, 0 to 100 scale, 0 is no effect, 100 is complete control
[8] = 500 g ai/ha, 0 to 100 scale (0 no effect, 100 complete control)
[9] = Postemergence, 125 g ai/ha, visual rating on 0 to 100 scale (0 no effect, 100 complete control), approx. 10 days
[10] = Preemergence, 500 g ai/ha, visual rating on 0 to 100 scale (0 no effect, 100 complete control)
[11] = 125 g ai/ha, visual rating on 0 to 100 scale (0 no effect, 100 complete control), approx. 10 days
[12] = 31 g ai/ha, scale of 0 to 100 where 0 is no effect and 100 is complete control, 13 to 15 days
[13] = 62 g ai/ha, scale of 0 to 100 where 0 is no effect and 100 is complete control, 13 to 15 days
[14] = 125 g ai/ha, scale of 0 to 100 where 0 is no effect and 100 is complete control, 13 to 15 days
[15] = 125 g ai/ha, visual rating, 0 to 100 scale, 0 no effect, 100 complete control, approximately 10 days, preemergence

O=C1NCC(c2ccc(F)c(F)c2)C1C(=O)Nc1ccccc1C(F)(F)F (racemic) [Compound 6]
Plant response rating, Crabgrass, Large (crabgrass, large; [1]): 60
Plant response rating, Crabgrass, Large (crabgrass, large; [2]): 80
Crabgrass, Large plant response rating (crabgrass, large; 125 g ai/ha): 80
Plant response rating, Crabgrass, Large (crabgrass, large; [3]): 90
Plant response rating, Morningglory (morningglory; [2]): 0
Morningglory plant response rating (morningglory; 125 g ai/ha): 0
Plant response rating, Morningglory (morningglory; [3]): 0

O=C1NCC(c2ccc(F)c(C(F)(F)F)c2)C1C(=O)Nc1cccc(F)c1F (racemic) [Compound 77]
Plant response rating, Crabgrass, Large (crabgrass, large; [1]): 80
Plant response rating, Crabgrass, Large (crabgrass, large; [2]): 80
Crabgrass, Large plant response rating (crabgrass, large; 125 g ai/ha): 90
Plant response rating, Crabgrass, Large (crabgrass, large; [3]): 90
Plant response rating, Morningglory (morningglory; [1]): 0
Plant response rating, Morningglory (morningglory; [2]): 30
Morningglory plant response rating (morningglory; 125 g ai/ha): 20
Plant response rating, Morningglory (morningglory; [3]): 60
Plant response rating, Sedge, Umbrella (sedge, umbrella; 250 g ai/ha, scale 0 to 100): 0
Plant response rating, Sedge, Umbrella (sedge, umbrella; 500 g ai/ha, scale 0 to 100): 0
Plant response rating, Sedge, Umbrella (sedge, umbrella; 1000 g ai/ha, scale 0 to 100): 20
Plant response rating, Sedge, Umbrella (sedge, umbrella; 2000 g ai/ha, scale 0 to 100): 40
Plant response rating, Ducksalad (ducksalad; 250 g ai/ha, scale 0 to 100): 95
Plant response rating, Ducksalad (ducksalad; 500 g ai/ha, scale 0 to 100): 100
Plant response rating, Ducksalad (ducksalad; 1000 g ai/ha, scale 0 to 100): 100
Plant response rating, Ducksalad (ducksalad; 2000 g ai/ha, scale 0 to 100): 100
Plant response rating, Barnyardgrass (barnyardgrass; 250 g ai/ha, scale 0 to 100): 20
Plant response rating, Barnyardgrass (barnyardgrass; 500 g ai/ha, scale 0 to 100): 30
Plant response rating, Barnyardgrass (barnyardgrass; 1000 g ai/ha, scale 0 to 100): 40
Plant response rating, Barnyardgrass (barnyardgrass; 2000 g ai/ha, scale 0 to 100): 70

O=C1NCC(c2cc(F)cc(F)c2)C1C(=O)Nc1ccccc1Cl (racemic) [Compound 280]
Plant response rating, Kochia (kochia; [4]): 0
Plant response rating, Kochia (kochia; [2]): 0
Plant response rating, Kochia (kochia; [5]): 0
Plant response rating, Kochia (kochia; [6]): 0
Plant response rating, Blackgrass (blackgrass; [7]): 0
Plant response rating, Blackgrass (blackgrass; [8]): 0
Plant response rating, Galium (galium; [7]): 0
Plant response rating, Galium (galium; [8]): 0

O=C1NCC(c2ccc(OC(F)F)cc2)C1C(=O)Nc1cccc(F)c1F (racemic) [Compound 350]
Plant response rating, Kochia (kochia; [9]): 70
Plant response rating, Kochia (kochia; [5]): 80
Kochia plant response rating (kochia; [10]): 80
Plant response rating, Blackgrass (blackgrass; [11]): 50
Plant response rating, Blackgrass (blackgrass; [8]): 50
Plant response rating, Galium (galium; [11]): 60

O=C1NCC(Br)(c2ccccc2)C1C(=O)Nc1ccccc1F (centres unmarked) [Compound 92, 4-bromo-N-(2-fluorophenyl)-2-oxo-4-phenyl-3-pyrrolidinecarboxamide]
pest or weed control at 125 g/ha (crabgrass, large; Digitaria sanguinalis, post-emergence, 240 h, Postemergence, 125 g ai/ha, 0 to 100 scale, 0 no effect, 100 complete control, read-out: Plant response rating, Crabgrass, Large): 20%
pest or weed control at 500 g/ha (crabgrass, large; Digitaria sanguinalis, post-emergence, 240 h, Postemergence, 500 g ai/ha, 0 to 100 scale (0 no effect, 100 complete control), read-out: Plant response rating, Crabgrass, Large): 70%
pest or weed control at 500 g/ha (crabgrass, large; Digitaria sanguinalis, pre-emergence, 240 h, preemergence, 500 g ai/ha, 0 to 100 scale, read-out: Plant response rating, Crabgrass, Large): 90%
Crabgrass, Large plant response rating (crabgrass, large; 125 g ai/ha): 80
pest or weed control at 125 g/ha (morningglory; Ipomoea, post-emergence, 240 h, Postemergence, 125 g ai/ha, 0 to 100 scale, 0 no effect, 100 complete control, read-out: Plant response rating, Morningglory): 0%
pest or weed control at 500 g/ha (morningglory; Ipomoea, post-emergence, 240 h, Postemergence, 500 g ai/ha, 0 to 100 scale (0 no effect, 100 complete control), read-out: Plant response rating, Morningglory): 0%
pest or weed control at 500 g/ha (morningglory; Ipomoea, pre-emergence, 240 h, preemergence, 500 g ai/ha, 0 to 100 scale, read-out: Plant response rating, Morningglory): 0%
Morningglory plant response rating (morningglory; 125 g ai/ha): 0
Plant response rating, Sedge, Umbrella (sedge, umbrella; [12]): 0
Plant response rating, Sedge, Umbrella (sedge, umbrella; [13]): 0
Plant response rating, Sedge, Umbrella (sedge, umbrella; [14]): 0
Plant response rating, Sedge, Umbrella (sedge, umbrella; 250 g ai/ha, scale 0 to 100): 0
Plant response rating, Ducksalad (ducksalad; [12]): 0
Plant response rating, Ducksalad (ducksalad; [13]): 20
Plant response rating, Ducksalad (ducksalad; [14]): 20
Plant response rating, Ducksalad (ducksalad; 250 g ai/ha, scale 0 to 100): 70
Plant response rating, Barnyardgrass (barnyardgrass; [12]): 10
Plant response rating, Barnyardgrass (barnyardgrass; [13]): 10
Plant response rating, Barnyardgrass (barnyardgrass; [14]): 10
Plant response rating, Barnyardgrass (barnyardgrass; 250 g ai/ha, scale 0 to 100): 10

O=C1NCC(c2ccc(Cl)cc2)C1C(=O)Nc1cccc(F)c1F (centres unmarked) [Compound 218]
Plant response rating, Kochia (kochia; [15]): 30
Plant response rating, Kochia (kochia; [4]): 50
Kochia plant response rating (0 to 100 scale, 0 is no effect, 100 is complete control) (kochia; Postemergence, 500 g ai/ha): 60
Plant response rating, Kochia (kochia; [6]): 70
Plant response rating, Blackgrass (blackgrass; [7]): 20
Blackgrass plant response rating (0 to 100 scale, 0 is no effect, 100 is complete control) (blackgrass; 500 g ai/ha): 40
Plant response rating, Galium (galium; [7]): 40
Galium plant response rating (0 to 100 scale, 0 is no effect, 100 is complete control) (galium; 500 g ai/ha): 60

O=C1NCC(c2ccc(C(F)(F)F)cc2)C1C(=O)Nc1ccccc1F (centres unmarked) [Compound 231]
Plant response rating, Kochia (kochia; [15]): 70
Plant response rating, Kochia (kochia; [4]): 70
Kochia plant response rating (0 to 100 scale, 0 is no effect, 100 is complete control) (kochia; Postemergence, 500 g ai/ha): 90
Plant response rating, Kochia (kochia; [6]): 90
Plant response rating, Blackgrass (blackgrass; [7]): 40
Blackgrass plant response rating (0 to 100 scale, 0 is no effect, 100 is complete control) (blackgrass; 500 g ai/ha): 60
Plant response rating, Galium (galium; [7]): 40
Galium plant response rating (0 to 100 scale, 0 is no effect, 100 is complete control) (galium; 500 g ai/ha): 50

CN1CC(c2cccc(C(F)(F)F)c2)C(C(=O)Nc2cccc(F)c2F)C1=O (centres unmarked) [Compound 305]
Plant response rating, Kochia (kochia; [9]): 30
Plant response rating, Kochia (kochia; [2]): 70
Plant response rating, Kochia (kochia; [5]): 70
Kochia plant response rating (kochia; [10]): 70
Plant response rating, Blackgrass (blackgrass; [11]): 60
Plant response rating, Blackgrass (blackgrass; [8]): 70
Plant response rating, Galium (galium; [11]): 50
Plant response rating, Galium (galium; [8]): 70

CN1CC(c2ccc(C(F)(F)F)cc2)C(C(=O)Nc2cccc(F)c2F)C1=O (centres unmarked) [Compound 306]
Plant response rating, Kochia (kochia; [9]): 30
Plant response rating, Kochia (kochia; [2]): 70
Plant response rating, Kochia (kochia; [5]): 70
Kochia plant response rating (kochia; [10]): 80
Plant response rating, Blackgrass (blackgrass; [11]): 50
Plant response rating, Blackgrass (blackgrass; [8]): 60
Plant response rating, Galium (galium; [11]): 60
Plant response rating, Galium (galium; [8]): 70

CC(C)c1cccc(C2CNC(=O)C2C(=O)Nc2cccc(F)c2F)c1 (centres unmarked) [Compound 319]
Plant response rating, Kochia (kochia; [9]): 30
Plant response rating, Kochia (kochia; [2]): 50
Plant response rating, Kochia (kochia; [5]): 60
Kochia plant response rating (kochia; [10]): 80
Plant response rating, Blackgrass (blackgrass; [11]): 40
Plant response rating, Blackgrass (blackgrass; [8]): 50
Plant response rating, Galium (galium; [11]): 30
Plant response rating, Galium (galium; [8]): 50

O=C1NCC(c2cccc(C(F)(F)F)c2)C1C(=O)Nc1ccc(F)c(F)c1F (centres unmarked) [Compound 345]
Plant response rating, Kochia (kochia; [9]): 50
Plant response rating, Kochia (kochia; [5]): 10
Kochia plant response rating (kochia; [10]): 80
Plant response rating, Blackgrass (blackgrass; [11]): 50
Plant response rating, Blackgrass (blackgrass; [8]): 60
Plant response rating, Galium (galium; [11]): 60
